Laboratory results reported in US20110250273A1, “COMPOSITIONS OF PROTON PUMP INHIBITORS, KITS AND METHODS OF THEIR USE TO TREAT DIABETES” (Melford Scientific, LLC, priority 2008, published 2011).
Marks after values point to notes of the source that are not given here.

Columns and labels:
Type in all cases: in vivo, human
[1] = system: Type II diabetic patients; test: Population comparison of HgbA1c in treated diabetic patients with or without a PPI (Examples 1-3); conditions: Example 2; 53 Metformin only patients, 11 Metformin plus proton pump inhibitor
Description: For a population of 347 Type II diabetic patients with recent HgbA1c measurements of an average 7.53% with a standard deviation of +/−1.77%. All were treated using insulin injections and/or a variety of oral agents, such as the above noted metformin, and other anti-diabetic medicines. The patients were treated for differing periods of time ranging from 3 months to 30 years.
The two groups were compared using a two-Sample T test that is a classical statistical test. […] The difference between the two groups was 0.61%, which is a significant difference with a p-value of 0.002.
64 total patients, of which 53 patients that were treated using only Metformin for the treatment of diabetes and 11 took Metformin and a proton pump inhibitor.
In this population, 79 patients were dosed with a sulfonylurea, either alone or in combination with metformin and/or pioglitazone or rosiglitazone. These 79 patients were not provided with insulin or sitagliptin.

[2] = system: Type II diabetic patients; test: Tolerability / adverse events in 24 week omeprazole trial (Example 4); conditions: all doses (40 mg and 80 mg twice daily), 24 weeks
Excerpt: (§1) Subjects: Five males, 2 females, age range 42-68 years, mean age 54+10 years. BMI's ranged from 31 to 49, mean 38+6. All subjects had co-morbid hypertension, four had co-morbid dyslipidemia and two had co-morbid hypothyroidism. All were stable on oral diabetes medications with 7/7 on metformin, 6/7 on pioglitazone (Actos), 4/7 on a DPP-4 inhibitor, sitagliptan (Januvia) and 4/7 on a Sulfonylurea. All subjects received a physical exam, review of systems and a baseline EKG prior to initiating the PPI trial. Subjects were then seen and evaluated at monthly intervals interviewed for adverse events and monitored for medication compliance and maintenance of daily blood glucose logs.
(§2) Design: All subjects continued on their respective oral antidiabetic medications throughout the study. Baseline data was obtained in a fasting state after an overnight fast. Subjects were then administered 75 g of glucose and blood samples obtained at 1 and 2 hours. Following collection of baseline data, subjects were administered Omeprazole Delayed-Release Capsules USP, (Apotex Inc., Toronto, Canada M9L 179), 40 mg orally twice daily and blood samples again obtained after 8, and 16 weeks. Medications were not taken on the mornings of testing. Following the 16 week sample collection, subjects were increased to 80 mg Omeprazole twice daily and blood samples again obtained at 24 weeks.

[3] = system: Type II diabetic patients; test: Hemoglobin A1c, Beta cell area and plasma gastrin during 24 week omeprazole trial (Example 4); conditions: for Beta Cell Area, %: calculated using the 2 hour glucose tolerance value by the method of Meier et al
Description: (§3) Seven Type II diabetic patients were administered omeprazole for 24 weeks and data was obtained from fasting and following a 2 hour glucose tolerance test at 8 week intervals and compared to baseline values. Statistical comparisons and analysis were performed with a commercial program, Analyse-it, version 2.20.
as §1, §2
(§4) Measurements: Helicobacter Pylori IgG was obtained on each subject as a baseline as were Hemoglobin A1c and fasting Gastrin. Each 2 hour glucose tolerance test provided fasting glucose, insulin and c-peptide as well as 1 hour and 2 hour glucose and stimulated insulin and c-peptide. All measurements were obtained through a commercial laboratory using standardized analytical methods, Quest Diagnostics Laboratory, 5850 Rogerdale Road, Houston, Tex. 77072.
Table 2 summarizes the effects of PPI administration on plasma Gastrin, Hemoglobin A1c and % Beta Cell area (calculated using the 2 hour glucose tolerance value by the method of Meier et al, Diabetes, vol 58, 1595-1603, 2009). […] Hemoglobin A1c, a measure of average blood glucose, was reduced by approximately 0.9% in this cohort, consistent with improved diabetes control (FIG. 5). Finally, the calculated Beta cell mass increased across the treatment period by approximately 25%.

[4] = system: Type II diabetic patients; test: 2 hour glucose tolerance test during 24 week omeprazole trial (Example 4); conditions: for C-Peptide 1 hour / C-Peptide 2 hours / Glucose 1 hour / Glucose 2 hours / Insulin 1 hour / Insulin 2 hours: after 75 g glucose
Description: as §3, §1, §2, §4

[5] = 8 weeks PPI, Omeprazole 40 mg orally twice daily
[6] = 16 weeks PPI, Omeprazole 40 mg orally twice daily
[7] = 24 weeks PPI, increased to 80 mg Omeprazole twice daily after week 16

SMILES: CN(C)C(=N)N=C(N)N [Metformin]
- Average HgbA1c [1]: 7.27%

SMILES: COc1ccc2[nH]c([S+]([O-])Cc3ncc(C)c(OC)c3C)nc2c1 (centres unmarked) [Omeprazole, 5-methoxy-2-[(4-methoxy-3,5-dimethyl-2-pyridinyl)methyl]sulfinyl-1H-benzimidazole]
- Adverse events [2]: no reports of adverse events
- Tolerability [2]: well tolerated
- Percent hemoglobin A1c reduction from baseline ([3]; 8, 16 and 24 weeks after taking PPI, FIG. 5): at least 0.6%
- Hemoglobin A1c, % [3, 5]: 7.7%
- Plasma Gastrin [3, 5]: 207 pg/mL
- Beta Cell Area, % ([3]; 8 weeks PPI): 0.46%
- Hemoglobin A1c, % [3, 6]: 7.8%
- Plasma Gastrin [3, 6]: 174 pg/mL
- Beta Cell Area, % ([3]; 16 weeks PPI): 0.51%
- Beta Cell Area, % ([3]; 24 weeks PPI): 0.40%
- Hemoglobin A1c, % [3, 7]: 7.9%
- Plasma Gastrin [3, 7]: 232 pg/mL
- Calculated Beta cell mass increase ([3]; across the treatment period): approximately 25%
- Change in percent hemoglobin A1c ([3]; all patients, statistically significant, FIG. 1): decrease
- Hemoglobin A1c reduction ([3]; in this cohort of seven patients, versus baseline): approximately 0.9%
- Plasma gastrin versus baseline ([3]; long term PPI administration, serum levels gradually reduced over time): markedly elevated
- Slope of linear best fit of hemoglobin A1c ([3]; seven type II diabetics, 24 week trial, FIG. 1): −0.021 % (HgbA1c) per week
- C-Peptide Fasting [4, 5]: 4.0
- Glucose Fasting [4, 5]: 127
- Insulin Fasting [4, 5]: 13.6
- C-Peptide 1 hour [4, 5]: 7.1
- C-Peptide 2 hours [4, 5]: 8.6***
- Glucose 1 hour [4, 5]: 235#
- Glucose 2 hours [4, 5]: 226
- Insulin 1 hour [4, 5]: 38.7
- Insulin 2 hours [4, 5]: 29.9
- C-Peptide Fasting [4, 6]: 3.4
- Glucose Fasting [4, 6]: 136
- Insulin Fasting [4, 6]: 12
- C-Peptide 1 hour [4, 6]: 6.0
- C-Peptide 2 hours [4, 6]: 7.9#
- Glucose 1 hour [4, 6]: 206*
- Glucose 2 hours [4, 6]: 229**
- Insulin 1 hour [4, 6]: 24.7
- Insulin 2 hours [4, 6]: 36.1
- C-Peptide Fasting [4, 7]: 3.6
- Glucose Fasting [4, 7]: 147
- Insulin Fasting [4, 7]: 10.9
- C-Peptide 1 hour [4, 7]: 5.8
- C-Peptide 2 hours [4, 7]: 7.9+
- Glucose 1 hour [4, 7]: 251
- Glucose 2 hours [4, 7]: 258
- Insulin 1 hour [4, 7]: 25
- Insulin 2 hours [4, 7]: 34
- 1 and 2 hour c-peptide secretion ([4]; after PPI administration): increased
- Fasting insulin levels ([4]; after PPI administration): unchanged
- Stimulated insulin secretion ([4]; at both 1 and 2 hours, after PPI administration): increased
- Maximum glucose excursion versus baseline ([4]; at both 1 and 2 hours, 8 and 16 weeks, statistically significant at 16 weeks): reduced
- Fasting blood glucose versus baseline ([4]; at both 8 and 16 weeks): reduced
